Measurements from patent US20040204409A1, “Bicyclic compounds as NR2B receptor antagonists” (priority 2003, published 2004).

Target: T1, NR2B receptor (Rattus norvegicus, UniProt P35439+Q00960)
T1 construct: Membranes were prepared by homogenization of forebrain of male CD rats; from tissue; host or cells: rat forebrain P2 membrane
Assay: NR2B Binding Assay (competition with [3H]-1-[(1S*,2S*)-2-hydroxy-2-(4-hydroxyphenyl)-1-methylethyl]-4-phenylpiperidin-4-ol on P2 membrane)
Details: forebrain P2 membrane of male CD rats, 5 nM radioligand, 60 minutes at room temperature, pH7.4; read-out: Ki value with respect to binding affinity for the NR2B receptor
Procedure: The activity of the bicyclic amide compounds of the present invention, as NR2B antagonists, is determined by their ability to inhibit the binding of NR2B subunit at its receptor sites employing radioactive ligands.
The NR2B antagonist activity of the bicyclic amide compounds is evaluated by using the standard assay procedure described in, for example, J. Pharmacol., 331, pp117-126, 1997. This method essentially involves determining the concentration of the individual compound required to reduce the amount of radiolabelled NR2B ligands by 50% at their receptor sites, thereby affording characteristic IC50 values for each compound tested. More specifically, the assay is carried out as follows. […]
For the saturation assay, receptor saturation was determined by incubating [^3H]-1-[(1S*,2S*)-2-hydroxy-2-(4-hydroxyphenyl)-1-methylethyl]-4-phenylpiperidin-4-ol and 50 μg protein of P2 membrane for 60 minutes at room temperature in a final 100 μl of incubation buffer (50 mM Tris HCl, pH7.4). Total and non-specific bindings (in the presence of 10 μM of unlabeled 1-[(1S*,2S*)-2-hydroxy-2-(4-hydroxyphenyl)-1-methylethyl]-4-phenylpiperidin-4-ol) were determined in a range of [3H]-1-[(1S*,2S*)-2-hydroxy-2-(4-hydroxyphenyl)-1-methylethyl]-4-phenylpiperidin-4-ol concentrations (0.625 nM to 60 nM). […]

T1 sequence (Q00960 27-1482, other chains not shown): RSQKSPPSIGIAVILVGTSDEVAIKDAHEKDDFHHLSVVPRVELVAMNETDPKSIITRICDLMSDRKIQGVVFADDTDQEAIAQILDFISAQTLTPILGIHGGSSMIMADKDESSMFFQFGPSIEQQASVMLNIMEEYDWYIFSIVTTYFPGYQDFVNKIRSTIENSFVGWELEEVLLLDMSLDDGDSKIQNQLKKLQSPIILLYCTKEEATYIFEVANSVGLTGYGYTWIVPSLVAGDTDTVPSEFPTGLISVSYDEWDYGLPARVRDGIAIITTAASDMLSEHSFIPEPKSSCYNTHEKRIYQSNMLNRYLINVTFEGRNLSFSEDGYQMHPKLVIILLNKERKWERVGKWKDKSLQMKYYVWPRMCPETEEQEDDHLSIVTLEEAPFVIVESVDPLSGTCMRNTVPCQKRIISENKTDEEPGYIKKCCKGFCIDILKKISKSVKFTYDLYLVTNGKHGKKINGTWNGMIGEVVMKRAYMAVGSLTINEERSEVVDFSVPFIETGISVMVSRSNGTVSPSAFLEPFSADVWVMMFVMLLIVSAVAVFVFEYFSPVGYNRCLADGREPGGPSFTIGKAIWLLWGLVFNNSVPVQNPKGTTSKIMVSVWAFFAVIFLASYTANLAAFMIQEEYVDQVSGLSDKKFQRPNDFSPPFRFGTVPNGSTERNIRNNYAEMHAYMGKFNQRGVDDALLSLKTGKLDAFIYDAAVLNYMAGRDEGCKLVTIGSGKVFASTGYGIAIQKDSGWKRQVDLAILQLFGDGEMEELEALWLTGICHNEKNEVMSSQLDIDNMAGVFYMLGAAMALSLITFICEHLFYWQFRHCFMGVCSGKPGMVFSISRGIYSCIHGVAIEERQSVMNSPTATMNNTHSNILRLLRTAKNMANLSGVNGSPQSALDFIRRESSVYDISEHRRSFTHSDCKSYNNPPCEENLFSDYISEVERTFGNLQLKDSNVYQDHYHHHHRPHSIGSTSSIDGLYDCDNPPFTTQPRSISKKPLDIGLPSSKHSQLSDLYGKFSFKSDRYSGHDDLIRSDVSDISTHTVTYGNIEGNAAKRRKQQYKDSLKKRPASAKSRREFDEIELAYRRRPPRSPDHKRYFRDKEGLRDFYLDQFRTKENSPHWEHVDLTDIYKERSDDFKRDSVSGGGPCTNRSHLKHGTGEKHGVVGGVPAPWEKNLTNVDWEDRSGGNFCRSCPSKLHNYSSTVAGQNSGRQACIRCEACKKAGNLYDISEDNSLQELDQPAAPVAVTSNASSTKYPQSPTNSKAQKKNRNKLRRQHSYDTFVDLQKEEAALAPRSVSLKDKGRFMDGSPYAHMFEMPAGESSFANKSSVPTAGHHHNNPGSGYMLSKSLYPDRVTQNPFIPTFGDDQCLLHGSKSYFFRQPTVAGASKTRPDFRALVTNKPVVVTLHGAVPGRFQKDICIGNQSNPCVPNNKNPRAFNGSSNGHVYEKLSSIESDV

Compound `O=C(NCc1ccc2[nH]c(Cc3ccccc3)cc2c1)c1ccc(O)cc1` [Example 8, N-[(2-benzyl-1H-indol-5-yl)methyl]-4-hydroxybenzamide] has a Ki of 2 nM.
